Experimental data: PubChem BioAssay (NCI)
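These data come from cells grown in 96-well plates and exposed to compound for 48 hours at five concentrations. TGI is the concentration that stops growth completely.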

Columns and labels:
Assay in all cases: NCI anticancer screen, dose series, 48 h
786-0 renal = system: 786-0 renal
A498 renal = system: A498 renal
A549 NSCLC = system: A549 NSCLC
ACHN renal = system: ACHN renal
BT-549 breast = system: BT-549 breast
CAKI-1 renal = system: CAKI-1 renal
COLO 205 colon = system: COLO 205 colon
DU-145 prostate = system: DU-145 prostate
EKVX NSCLC = system: EKVX NSCLC
HCT-116 colon = system: HCT-116 colon
HCT-15 colon = system: HCT-15 colon
HL-60(TB) leukemia = system: HL-60(TB) leukemia
HOP-62 NSCLC = system: HOP-62 NSCLC
HOP-92 NSCLC = system: HOP-92 NSCLC
HS 578T breast = system: HS 578T breast
HT29 colon = system: HT29 colon
IGROV1 ovarian = system: IGROV1 ovarian
K-562 leukemia = system: K-562 leukemia
KM12 colon = system: KM12 colon
LOX IMVI melanoma = system: LOX IMVI melanoma
M14 melanoma = system: M14 melanoma
MALME-3M melanoma = system: MALME-3M melanoma
MCF7 breast = system: MCF7 breast
MDA-MB-231 breast = system: MDA-MB-231 breast
MDA-MB-435 = system: MDA-MB-435
MDA-N = system: MDA-N
MOLT-4 leukemia = system: MOLT-4 leukemia
NCI-H226 lung = system: NCI-H226 lung
NCI-H23 lung = system: NCI-H23 lung
NCI-H460 lung = system: NCI-H460 lung
NCI-H522 lung = system: NCI-H522 lung
NCI/ADR-RES ovarian = system: NCI/ADR-RES ovarian
OVCAR-3 ovarian = system: OVCAR-3 ovarian
OVCAR-4 ovarian = system: OVCAR-4 ovarian
OVCAR-5 ovarian = system: OVCAR-5 ovarian
OVCAR-8 ovarian = system: OVCAR-8 ovarian
PC-3 prostate = system: PC-3 prostate
RPMI-8226 leukemia = system: RPMI-8226 leukemia
RXF 393 renal = system: RXF 393 renal
SF-268 CNS = system: SF-268 CNS
SF-295 CNS = system: SF-295 CNS
SF-539 CNS = system: SF-539 CNS
SK-MEL-2 melanoma = system: SK-MEL-2 melanoma
SK-MEL-28 melanoma = system: SK-MEL-28 melanoma
SK-MEL-5 melanoma = system: SK-MEL-5 melanoma
SK-OV-3 ovarian = system: SK-OV-3 ovarian
SN12C renal = system: SN12C renal
SNB-19 CNS = system: SNB-19 CNS
SNB-75 CNS = system: SNB-75 CNS
SR leukemia = system: SR leukemia
SW-620 colon = system: SW-620 colon
T-47D breast = system: T-47D breast
TK-10 renal = system: TK-10 renal
U251 CNS = system: U251 CNS
UACC-257 melanoma = system: UACC-257 melanoma
UACC-62 melanoma = system: UACC-62 melanoma
UO-31 renal = system: UO-31 renal

Measured: TGI

CC(=O)Nc1nc2ncc(C=O)nc2c(=O)[nH]1
> 100 µM: all assays above

O=C(O)/C=C/C=C/c1ccc2c(c1)OCO2
> 100 µM: all assays above

C=C(C)c1ccccc1 (tested in a mixture with another compound)
> 100 µM: all assays above
